A value given as a limit tells only on which side of the number the result lay.

The values that follow come from ChEMBL document CHEMBL1158009, “Paclitaxel analogues from Taxus x media cv. Hicksii” (1999).

The test system of one test is MCF7R. Put plainly: Cytotoxicity against human MCF7R cells assessed as ratio of ED50 for drug to ED50 for paclitaxel. Format: functional.
The next test concerns MCF7. The experiment in a line: Cytotoxicity against human MCF7 cells assessed as ratio of ED50 for drug to ED50 for paclitaxel. Format: functional.
In another test the test system is Tubulin. The experiment in a line: Inhibition of microtubule assembly = assessed as ratio of ED50 for drug to ED50 for paclitaxel.

Take `CC(=O)O[C@H]1C(=O)[C@@]2(C)[C@H]([C@H](OC(=O)c3ccccc3)[C@]3(O)C[C@H](OC(=O)[C@H](O)[C@H](NC(=O)/C=C/c4ccccc4)c4ccccc4)C(C)=C1C3(C)C)[C@]1(OC(C)=O)CO[C@@H]1C[C@@H]2O`: the “Ratio ED50” value in the test with MCF7R came out at 1.2; with MCF7, 1.3; in the test with Tubulin, 1.2.

With `CCC(C)C(=O)N[C@H](c1ccccc1)[C@@H](O)C(=O)O[C@H]1C[C@@]2(O)[C@@H](OC(=O)c3ccccc3)[C@@H]3[C@]4(OC(C)=O)CO[C@@H]4C[C@H](O)[C@@]3(C)C(=O)[C@H](OC(C)=O)C(=C1C)C2(C)C` (some centres not stated), the “Ratio ED50” value is >10 in the test on MCF7 and 6.7 in the test on Tubulin.

For `C/C=C(\C)C(=O)O[C@H]1[C@@H]2[C@]3(OC(C)=O)CO[C@@H]3C[C@H](O)[C@@]2(C)C(=O)[C@H](OC(C)=O)C2=C(C)[C@@H](OC(=O)[C@H](O)[C@H](NC(=O)c3ccccc3)c3ccccc3)C[C@]1(O)C2(C)C` [ISOCEPHALOMANNINE], the entries for the “Ratio ED50” value in the test on MCF7 and in the test with Tubulin were 12 and 1.1, respectively.
